Assay [1] addresses T1, FLT3 (Homo sapiens (Human), UniProt P36888). The experiment in a line: Measurement of FLT3 enzyme activity. Type of assay: biochemical. From the text: Measurement of FLT3 Enzyme Activity
A change in FLT3 enzyme activity by treatment with the benzimidazole derivatives of the following Table 1 according to the present invention was confirmed by IC50.

Assay [2] concerns FLT3 (ITD). The experiment in a line: Kinase panel screening. The settings on record: single dose of 10 μM.
Text: (§1) Measurement of Inhibitory Activity Against Various Protein Kinases
The target of assay [3] is RAFI (Homo sapiens (Human), UniProt P04049). Put plainly: Kinase panel screening. Particulars: read-out: % inhibition rate.
Text: as §1
Assay [4] addresses T1, FLT3. Put plainly: Kinase panel screening. The settings on record: FLT3; single dose of 10 μM.
Text: as §1
Assay [5] deals with FMS (Homo sapiens (Human), UniProt P07333). The experiment in a line: Kinase panel screening. Type of assay: biochemical.
Assay [6] has as its target FGFR3 (Homo sapiens (Human), UniProt P22607). Put plainly: Kinase panel screening. Particulars: read-out: Staurosporine IC50; FGFR3; control compound per footnote b.
Text: as §1
Where [7] appears, read: FLT3 enzyme activity, read-out: FLT3 (IC50).

Read-outs that look alike come from different tables or passages of the source.

T1 sequence (P36888 27-993): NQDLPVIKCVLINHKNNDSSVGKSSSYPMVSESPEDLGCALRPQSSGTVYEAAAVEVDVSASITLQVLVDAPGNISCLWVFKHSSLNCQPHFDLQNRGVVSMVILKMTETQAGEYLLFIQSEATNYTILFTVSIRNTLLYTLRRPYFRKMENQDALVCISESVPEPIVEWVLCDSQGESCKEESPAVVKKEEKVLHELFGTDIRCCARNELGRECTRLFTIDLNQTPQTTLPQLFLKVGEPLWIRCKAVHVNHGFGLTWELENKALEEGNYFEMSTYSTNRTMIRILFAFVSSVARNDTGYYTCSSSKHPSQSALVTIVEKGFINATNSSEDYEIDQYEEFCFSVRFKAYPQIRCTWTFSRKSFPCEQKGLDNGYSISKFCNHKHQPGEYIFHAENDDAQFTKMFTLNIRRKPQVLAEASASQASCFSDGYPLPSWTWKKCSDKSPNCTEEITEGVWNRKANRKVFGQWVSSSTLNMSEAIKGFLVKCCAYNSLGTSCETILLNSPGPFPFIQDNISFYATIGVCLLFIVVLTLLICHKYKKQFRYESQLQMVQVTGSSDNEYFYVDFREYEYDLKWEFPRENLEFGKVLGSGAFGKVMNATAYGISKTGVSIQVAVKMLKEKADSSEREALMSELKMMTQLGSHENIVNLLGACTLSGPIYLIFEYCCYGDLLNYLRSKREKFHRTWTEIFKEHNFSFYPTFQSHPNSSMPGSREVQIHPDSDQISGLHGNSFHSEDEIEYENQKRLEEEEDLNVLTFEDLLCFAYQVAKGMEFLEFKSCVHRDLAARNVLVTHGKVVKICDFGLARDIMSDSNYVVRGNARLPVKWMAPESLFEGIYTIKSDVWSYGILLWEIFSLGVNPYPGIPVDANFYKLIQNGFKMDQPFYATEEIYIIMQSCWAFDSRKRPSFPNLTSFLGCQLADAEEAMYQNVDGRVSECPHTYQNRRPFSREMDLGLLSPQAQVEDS
FMS, sequence (P07333 20-972, species assumed): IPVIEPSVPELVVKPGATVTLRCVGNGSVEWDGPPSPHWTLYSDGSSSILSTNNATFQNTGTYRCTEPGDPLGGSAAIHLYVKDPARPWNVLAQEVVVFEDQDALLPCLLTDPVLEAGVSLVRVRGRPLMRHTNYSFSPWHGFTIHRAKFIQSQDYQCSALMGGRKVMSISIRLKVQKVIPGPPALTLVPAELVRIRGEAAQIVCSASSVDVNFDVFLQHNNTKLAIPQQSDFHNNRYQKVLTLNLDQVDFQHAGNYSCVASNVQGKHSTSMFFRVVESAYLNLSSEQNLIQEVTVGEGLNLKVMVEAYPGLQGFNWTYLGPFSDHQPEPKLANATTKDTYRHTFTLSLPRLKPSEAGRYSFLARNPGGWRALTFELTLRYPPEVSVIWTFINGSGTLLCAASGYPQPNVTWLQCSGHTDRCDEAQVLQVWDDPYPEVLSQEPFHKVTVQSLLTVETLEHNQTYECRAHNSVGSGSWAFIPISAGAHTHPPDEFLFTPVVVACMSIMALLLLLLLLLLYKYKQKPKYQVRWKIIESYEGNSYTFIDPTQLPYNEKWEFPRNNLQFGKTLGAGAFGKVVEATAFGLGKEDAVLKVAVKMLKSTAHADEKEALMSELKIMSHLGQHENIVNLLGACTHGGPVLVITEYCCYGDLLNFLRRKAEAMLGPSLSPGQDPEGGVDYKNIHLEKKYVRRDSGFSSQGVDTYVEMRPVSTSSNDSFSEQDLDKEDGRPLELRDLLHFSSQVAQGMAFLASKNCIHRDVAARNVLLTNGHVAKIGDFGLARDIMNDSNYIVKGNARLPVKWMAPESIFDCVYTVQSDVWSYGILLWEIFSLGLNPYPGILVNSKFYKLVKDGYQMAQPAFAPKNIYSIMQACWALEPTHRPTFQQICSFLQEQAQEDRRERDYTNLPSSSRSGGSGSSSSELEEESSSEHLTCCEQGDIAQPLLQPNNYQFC
FGFR3, sequence (P22607 23-806, species assumed): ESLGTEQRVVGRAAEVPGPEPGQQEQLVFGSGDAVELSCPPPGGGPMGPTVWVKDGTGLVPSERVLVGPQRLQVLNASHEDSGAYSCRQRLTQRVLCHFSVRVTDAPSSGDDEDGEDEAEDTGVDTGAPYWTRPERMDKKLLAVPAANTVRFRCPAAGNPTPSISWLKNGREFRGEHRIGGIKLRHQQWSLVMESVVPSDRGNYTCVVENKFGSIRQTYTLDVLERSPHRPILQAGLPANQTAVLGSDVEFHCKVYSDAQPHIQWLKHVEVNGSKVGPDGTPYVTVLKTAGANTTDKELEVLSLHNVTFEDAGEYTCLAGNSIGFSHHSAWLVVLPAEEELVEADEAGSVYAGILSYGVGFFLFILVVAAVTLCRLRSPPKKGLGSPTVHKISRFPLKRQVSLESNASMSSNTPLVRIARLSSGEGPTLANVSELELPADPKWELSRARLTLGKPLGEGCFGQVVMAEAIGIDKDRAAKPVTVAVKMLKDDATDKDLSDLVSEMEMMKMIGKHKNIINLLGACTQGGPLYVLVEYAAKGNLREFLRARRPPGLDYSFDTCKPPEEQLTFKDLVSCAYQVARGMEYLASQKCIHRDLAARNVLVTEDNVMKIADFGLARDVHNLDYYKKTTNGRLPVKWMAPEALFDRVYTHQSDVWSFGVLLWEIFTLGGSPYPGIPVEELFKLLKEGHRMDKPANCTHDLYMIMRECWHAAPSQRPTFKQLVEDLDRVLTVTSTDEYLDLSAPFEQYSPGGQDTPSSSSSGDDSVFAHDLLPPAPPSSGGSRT
RAFI, sequence (P04049 whole entry): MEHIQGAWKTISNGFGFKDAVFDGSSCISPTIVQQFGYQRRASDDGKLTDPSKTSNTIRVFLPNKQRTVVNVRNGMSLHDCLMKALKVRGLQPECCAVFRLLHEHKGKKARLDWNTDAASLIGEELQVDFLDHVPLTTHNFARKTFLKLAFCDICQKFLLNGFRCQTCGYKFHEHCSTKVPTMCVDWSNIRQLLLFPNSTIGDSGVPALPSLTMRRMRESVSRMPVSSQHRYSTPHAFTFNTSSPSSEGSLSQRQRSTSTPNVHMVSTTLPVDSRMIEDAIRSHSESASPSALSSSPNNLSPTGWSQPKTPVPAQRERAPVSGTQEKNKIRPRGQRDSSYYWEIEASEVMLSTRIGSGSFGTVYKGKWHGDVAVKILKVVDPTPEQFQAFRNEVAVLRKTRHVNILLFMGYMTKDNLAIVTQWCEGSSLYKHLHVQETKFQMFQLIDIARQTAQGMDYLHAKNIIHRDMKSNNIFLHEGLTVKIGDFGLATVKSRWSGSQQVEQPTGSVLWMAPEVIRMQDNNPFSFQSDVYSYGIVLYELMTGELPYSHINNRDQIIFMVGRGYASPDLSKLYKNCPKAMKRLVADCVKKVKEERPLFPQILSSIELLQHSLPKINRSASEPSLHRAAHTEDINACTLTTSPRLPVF

As a reminder, the IC50 is the concentration needed to halve the response being measured. For orientation: inhibition means the change of the read-out against control, counted positive when it falls. Turning to `Cc1oncc1C(=O)Nc1ccc2[nH]c(-c3cc(N4CCN(C)CC4)cc(C(F)(F)F)c3)nc2c1` [Compound 5a, 5-methyl-N-(2-(3-(4-methylpiperazin-1-yl)-5-(trifluoromethyl)phenyl)-1H-benz[d]imidazol-5-yl)isoxazole-4-carboxamide], the IC50 in assay [1] (setting [7]) is less than 3000 nM; in assay [1] (FLT3 kinase activity, read-out: IC50 against FLT3) it was 495 nM. In addition, the “% inhibition rate” value in assay [2] turned out to be 88.48%; in assay [4] it was 89.97%. In addition, the inhibition at 10 µM stood at 8.47% in assay [3] and 0% in assay [5] (read-out: % inhibition rate). For the same molecule, the “activity against other protein kinases, particularly FMS (in words)” value in assay [5] (single dose of 10 μM) is recorded as “did not exhibit significant activity”.
In the case of `Cc1oncc1C(=O)Nc1cccc2[nH]c(-c3cc(N4CCN(C)CC4)cc(C(F)(F)F)c3)nc12` [Compound 6a], the IC50 in assay [1] (setting [7]) is less than 3000 nM.
Consider `Cc1oncc1C(=O)Nc1cccc2[nH]c(-c3ccc(N4CCOCC4)c(C(F)(F)F)c3)nc12` [Compound 6b, 5-methyl-N-(2-(4-morpholino-3-(trifluoromethyl)phenyl)-1H-benz[d]imidazol-4-yl)isoxazole-4-carboxamide], for which the IC50 in assay [1] (setting [7]) is greater than 10000 nM.
As to `Cc1cn(-c2cc(-c3nc4c(NC(=O)c5cnoc5C)cccc4[nH]3)cc(C(F)(F)F)c2)cn1` [Compound 6c, 5-methyl-N-(2-(3-(4-methyl-1H-imidazol-1-yl)-5-(trifluoromethyl)phenyl)-1H-benz[d]imidazol-4-yl)isoxazole-4-carboxamide], in assay [1] (setting [7]), the IC50 lay in the range of 3000 to 10000 nM.
On to `O=C(Nc1ccc2[nH]nc(-c3ccncc3)c2c1)[C@@H]1CCN(CC(=O)N2CCN(c3ccc(-c4ncccn4)cc3)CC2)C1` [SCH772984, reference compound], for which the IC50 in assay [6] is 14.7 nM.

Values taken from patent US12473278B2 (Industry—University Cooperation Foundation Hangyang …, priority 2019, dated 2025).
